Patent publication US20190010236A1, “METHODS AND COMPOSITIONS FOR DECTIN-2 STIMULATION AND CANCER IMMUNOTHERAPY” (The Board of Trustees of the Leland Stanford Junior …, priority 2015, published 2019)

Experiments:
PDAC cells = experiment: High-mannose glycan display on kifunensine-treated tumor cells (concavalin A staining); assay type: cell-based; conditions: tumor cells treated with kifunensine for 3 days
Experimental: (§1) FIG. 5A-5D. Mannosidase inhibition with kifunensine induces high-mannose glycan display and increases tumor cell immunogenicity. (FIG. 5A-5C) PDAC cells were treated with kifunensine for 3 days prior to flow cytometric analysis (FIG. 5A) or coculture with TAM (FIG. 5B, FIG. 5C). (FIG. 5A) PDAC cells stained with the mannose-binding lectin, concavalin A. (FIG. 5B, FIG. 5C) Pretreated PDAC cells were labeled with CSFE and cocultured overnight with TAM to assess cytokine production (FIG. 5B) and tumor cell uptake (FIG. 5C) by Dectin-2-expressing TAM. In some experiments, TAM were treated with Dectin-2-blocking antibodies prior to coculture with PDAC cells (FIG. 5C). *, p<0.05 by Student's t-test. (FIG. 5D) Subcutaneous PDAC tumors from kifunensine-treated mice (i.p., q2d for 7 days) were analyzed by flow cytometry. CD8 T cells (CD8^+CD90^+) among total tumor-infiltrating immune cells are gated.

[1] = tested on: tumor-associated myeloid cells (TAM cells); experiment: Coculture of kifunensine-pretreated PDAC cells with TAM (cytokine production, tumor cell uptake); assay type: cell-based; conditions: kifunensine-pretreated PDAC cells cocultured overnight with TAM; Dectin-2-dependent
Experimental: as §1

subcutaneous PDAC tumors = experiment: Kifunensine treatment of mice with subcutaneous PDAC tumors; assay type: in vivo; conditions: kifunensine i.p., q2d for 7 days
Experimental: as §1

s.c. CT26 tumors = experiment: Mannan (i.v.) and/or GM-CSF (i.t.) in s.c. CT26 tumors; assay type: in vivo, mice; conditions: GM-CSF i.t. with mannan i.v.
Experimental: (§2) FIG. 4A-4D. GM-CSF induces Dectin-2 expression and sensitizes tumors to Dectin-2 stimuli. (FIG. 4A-4C) Murine (FIG. 4A, FIG. 4B) and human (FIG. 4C) monocytes were cultured for 24 hr in media supplemented or not with GM-CSF (50 ng/mL) prior to flow cytometric analysis of Dectin-2 expression (FIG. 4A, FIG. 4C) or stimulation with furfurman and analysis of TNFα production (FIG. 4B). […] (FIG. 4D) Mice bearing s.c. CT26 tumors were treated with mannan (i.v.) and/or GM-CSF (i.t.) starting on day 6 post-tumor implantation.
as §2, with “(FIG.” for “FIG. 4A-4D. GM-CSF induces Dectin-2 expression and sensitizes tumors to Dectin-2 stimuli. (FIG.”, “GM-CSF production.” for “TNFα production (FIG. 4B).”

human monocytes = experiment: Flow cytometric analysis of Dectin-2 expression after GM-CSF culture; assay type: cell-based; conditions: 24 hr, GM-CSF 50 ng/mL
Experimental: as §2
as §2, with “(FIG.” for “FIG. 4A-4D. GM-CSF induces Dectin-2 expression and sensitizes tumors to Dectin-2 stimuli. (FIG.”, “GM-CSF production.” for “TNFα production (FIG. 4B).”

murine monocytes = experiment: as above; assay type: cell-based; conditions: 24 hr, GM-CSF 50 ng/mL
Experimental: as §2
as §2, with “(FIG.” for “FIG. 4A-4D. GM-CSF induces Dectin-2 expression and sensitizes tumors to Dectin-2 stimuli. (FIG.”, “GM-CSF production.” for “TNFα production (FIG. 4B).”

| Compound | high-mannose glycans on the cell surface (PDAC cells) | TAM activation by treated tumor cells (cytokine production, tumor cell uptake) [1] | T cell infiltration into tumors (subcutaneous PDAC tumors) | high-mannose glycan display by tumor cells in vivo (subcutaneous PDAC tumors) | sensitization of tumors to Dectin-2 stimuli (tumor volume) (s.c. CT26 tumors) | Dectin-2 expression (human monocytes) | Dectin-2 expression (murine monocytes) |
| --- | --- | --- | --- | --- | --- | --- | --- |
| O=C1N[C@@H]2[C@@H](O)[C@@H](O)[C@H](O)[C@@H](CO)N2C1=O [kifunensine] | sharp increase | inducing proinflammatory cytokine production and tumor cell uptake | led to T cell infiltration into tumors | increased high-mannose glycan display by tumor cells | – | – | – |
| GM-CSF: cytokine that induces Dectin-2 expression by myeloid cells | – | – | – | – | sensitized tumors to Dectin-2 stimuli | induced Dectin-2 expression | induced Dectin-2 expression |
